Laboratory results: patent publication US20190161736A1, “CELL CULTURE” (National University of Singapore, priority 2016, published 2019)
Where two headings read alike, the source gives them in different places.

Key:
[1] = system: clinical human primary cancer cells cultured from blood samples (CD45- cells); test: Microwell-based CTC cluster assay, doxorubicin screening on clusters cultured from breast cancer patient blood samples; conditions: for IC50 / viability at 1 µM: Homo sapiens; for IC50: 72 hrs exposure; for viability at 1 µM: 72 hrs
MCF-7 monolayer cultures = conditions: monolayer cultures with lower cell counts, <10k cells per ml; read-out: IC50 value (previous studies); cited from earlier work
[2] = system: MCF-7 breast cancer cell line clusters; test: Microwell-based CTC cluster assay, doxorubicin screening on MCF-7 clusters (live/dead staining); assay type: cell-based; conditions: Homo sapiens, MCF7, normoxia, 72 hrs exposure from Day 3, viability by Calcein-AM/EtBr
Method: Cell Culture of MCF-7 Cancer Cell Line MCF-7 (HTB-22TM, ATCC, USA), a human breast adenocarcinoma cell line, was first used to mimic CTC cluster formation. Cell lines were maintained in supplemented high-glucose Dulbecco's modified Eagle's medium (DMEM) (Invitrogen, USA) with 10% fetal bovine serum (FBS) (Invitrogen, USA) together with 1% penicillin-streptomycin (Invitrogen, USA). Cultures were kept at 37° C. in a humidified atmosphere containing 5% (v/v) CO2 till 80% confluence. Cells were cultured in sterile 25 cm^2 flasks (BD Bioscience, USA) and sub-cultivated two times a week with media replaced every 48 h. Sub-confluent monolayers were dissociated using 0.01% otrypsin and 5.3 mM EDTA solution (Lonza, Switzerland).
The closed system was then incubated at 37° C., 5% CO2 till drug treatment at Day 3 or Day 11 for MCF-7 cultures and clinical sample cultures respectively.
A stock solution was prepared in 100% DMSO and subsequently was diluted in supplemented DMEM (1 μl to 1 ml of media), resulting in ˜0.1% of DMSO concentration (1 μM drug concentration), which has negligible effects on cells.
To establish the IC50 values, z-stacks images of 25 microwells from each channel were obtained with a confocal microscope.

IC50 ([1]; 72 h, read-out: IC50 value, sample CES021, Post treatment): > 1000 nM | IC50 ([1]; 72 h, read-out: IC50 value, sample CES053, Post treatment): 340 nM | IC50 ([1]; 72 h, read-out: IC50 value, sample P2B28, Post treatment): > 1000 nM | IC50 ([1]; 72 h, read-out: IC50 value, sample P2B29, Post treatment): 860 nM | IC50 ([1]; read-out: IC50 value, sample CTB039, Pre-treatment): 850 nM | IC50 ([1]; read-out: IC50 value, sample P2B29, Pre-treatment): 940 ± 40 nM | IC50 [2]: 780 ± 20 nM
SMILES: COc1cccc2c1C(=O)c1c(O)c3c(c(O)c1C2=O)C[C@@](O)(C(=O)CO)C[C@@H]3O[C@H]1C[C@H](N)[C@H](O)[C@H](C)O1 [doxorubicin, Doxorubicin]
viability at 1 µM ([1]; 72 h, read-out: Percentage of viable CD45-cells, CES21 Post-treatment, 1.6% of drug (1 μM)): 96.4% | viability at 1 µM ([1]; 72 h, read-out: Percentage of viable CD45-cells, CES21 Post-treatment, 10.9% of drug (1 μM)): 94.9% | viability at 1 µM ([1]; 72 h, read-out: Percentage of viable CD45-cells, CES21 Post-treatment, 34.4% of drug (1 μM)): 92% | viability at 1 µM ([1]; 72 h, read-out: Percentage of viable CD45-cells, CES21 Post-treatment, 65.6% of drug (1 μM)): 78.6% | viability at 1 µM ([1]; 72 h, read-out: Percentage of viable CD45-cells, CES21 Post-treatment, 89.1% of drug (1 μM)): 71.1% | viability at 1 µM ([1]; 72 h, read-out: Percentage of viable CD45-cells, CES21 Post-treatment, 98.4% of drug (1 μM)): 66.9% | viability at 1 µM ([1]; 72 h, read-out: Percentage of viable CD45-cells, CES21 Post-treatment, 100.0% of drug (1 μM)): 67.9% | viability at 1 µM ([1]; 72 h, read-out: Percentage of viable CD45-cells, CES053 Post-treatment, 1.6% of drug (1 μM)): 51.7% | viability at 1 µM ([1]; 72 h, read-out: Percentage of viable CD45-cells, CES053 Post-treatment, 10.9% of drug (1 μM)): 51.4% | viability at 1 µM ([1]; 72 h, read-out: Percentage of viable CD45-cells, CES053 Post-treatment, 34.4% of drug (1 μM)): 48% | viability at 1 µM ([1]; 72 h, read-out: Percentage of viable CD45-cells, CES053 Post-treatment, 65.6% of drug (1 μM)): 52.2% | viability at 1 µM ([1]; 72 h, read-out: Percentage of viable CD45-cells, CES053 Post-treatment, 89.1% of drug (1 μM)): 42.8% | viability at 1 µM ([1]; 72 h, read-out: Percentage of viable CD45-cells, CES053 Post-treatment, 98.4% of drug (1 μM)): 41% | viability at 1 µM ([1]; 72 h, read-out: Percentage of viable CD45-cells, CES053 Post-treatment, 100.0% of drug (1 μM)): 39.8% | viability at 1 µM ([1]; 72 h, read-out: Percentage of viable CD45-cells, P2B28 Post-treatment, 1.6% of drug (1 μM)): 39.3% | viability at 1 µM ([1]; 72 h, read-out: Percentage of viable CD45-cells, P2B28 Post-treatment, 10.9% of drug (1 μM)): 32.6% | viability at 1 µM ([1]; 72 h, read-out: Percentage of viable CD45-cells, P2B28 Post-treatment, 34.4% of drug (1 μM)): 39.2% | viability at 1 µM ([1]; 72 h, read-out: Percentage of viable CD45-cells, P2B28 Post-treatment, 65.6% of drug (1 μM)): 28.8% | viability at 1 µM ([1]; 72 h, read-out: Percentage of viable CD45-cells, P2B28 Post-treatment, 89.1% of drug (1 μM)): 27.6% | viability at 1 µM ([1]; 72 h, read-out: Percentage of viable CD45-cells, P2B28 Post-treatment, 98.4% of drug (1 μM)): 24.4% | viability at 1 µM ([1]; 72 h, read-out: Percentage of viable CD45-cells, P2B28 Post-treatment, 100.0% of drug (1 μM)): 0% | viability at 1 µM ([1]; 72 h, read-out: Percentage of viable CD45-cells, P2B29 Post-treatment, 1.6% of drug (1 μM)): 73.6% | viability at 1 µM ([1]; 72 h, read-out: Percentage of viable CD45-cells, P2B29 Post-treatment, 10.9% of drug (1 μM)): 56.2% | viability at 1 µM ([1]; 72 h, read-out: Percentage of viable CD45-cells, P2B29 Post-treatment, 34.4% of drug (1 μM)): 18.5% | viability at 1 µM ([1]; 72 h, read-out: Percentage of viable CD45-cells, P2B29 Post-treatment, 65.6% of drug (1 μM)): 7.7% | viability at 1 µM ([1]; 72 h, read-out: Percentage of viable CD45-cells, P2B29 Post-treatment, 89.1% of drug (1 μM)): 4.1% | viability at 1 µM ([1]; 72 h, read-out: Percentage of viable CD45-cells, P2B29 Post-treatment, 98.4% of drug (1 μM)): 1.1% | viability at 1 µM ([1]; 72 h, read-out: Percentage of viable CD45-cells, P2B29 Post-treatment, 100.0% of drug (1 μM)): 0.4% | viability at 1 µM ([1]; read-out: Percentage of viable CD45-cells, CTB039 Pre-treatment, 1.6% of drug (1 μM)): 85.5% | viability at 1 µM ([1]; read-out: Percentage of viable CD45-cells, CTB039 Pre-treatment, 10.9% of drug (1 μM)): 81.6% | viability at 1 µM ([1]; read-out: Percentage of viable CD45-cells, CTB039 Pre-treatment, 34.4% of drug (1 μM)): 69.7% | viability at 1 µM ([1]; read-out: Percentage of viable CD45-cells, CTB039 Pre-treatment, 65.6% of drug (1 μM)): 58.3% | viability at 1 µM ([1]; read-out: Percentage of viable CD45-cells, CTB039 Pre-treatment, 89.1% of drug (1 μM)): 48.3% | viability at 1 µM ([1]; read-out: Percentage of viable CD45-cells, CTB039 Pre-treatment, 98.4% of drug (1 μM)): 44.2% | viability at 1 µM ([1]; read-out: Percentage of viable CD45-cells, CTB039 Pre-treatment, 100.0% of drug (1 μM)): 40.8% | viability at 1 µM ([1]; read-out: Percentage of viable CD45-cells, P2B29 Pre-treatment, 1.6% of drug (1 μM)): 96.6% | viability at 1 µM ([1]; read-out: Percentage of viable CD45-cells, P2B29 Pre-treatment, 10.9% of drug (1 μM)): 86.4% | viability at 1 µM ([1]; read-out: Percentage of viable CD45-cells, P2B29 Pre-treatment, 34.4% of drug (1 μM)): 26.2% | viability at 1 µM ([1]; read-out: Percentage of viable CD45-cells, P2B29 Pre-treatment, 65.6% of drug (1 μM)): 3.9% | viability at 1 µM ([1]; read-out: Percentage of viable CD45-cells, P2B29 Pre-treatment, 89.1% of drug (1 μM)): 2.6% | viability at 1 µM ([1]; read-out: Percentage of viable CD45-cells, P2B29 Pre-treatment, 98.4% of drug (1 μM)): 0.7% | viability at 1 µM ([1]; read-out: Percentage of viable CD45-cells, P2B29 Pre-treatment, 100.0% of drug (1 μM)): 0.4% | average correlation coefficient, percentage of microwells with cluster vs concentration of doxorubicin ([1]; clinical sample cultures, FIG. 15A): −0.71 | proportion of microwells with presence of macrophage-like cells vs drug concentration ([1]; clinical sample cultures, FIG. 15B): did not seem to correlate with drug concentration | IC50 (MCF-7 monolayer cultures): ~500 nM
